Test results from patent US20250221936A1, “ENGINEERED HEMICHANNELS, ENGINEERED VESICLES, AND USES THEREOF” (VIRGINIA TECH INTELLECTUAL PROPERTIES, INC., priority 2018, published 2025).
“Also recorded” adds a separate entry of the source.

What was measured:
adult mouse hearts = experiment: Langendorff ischemia-reperfusion (I/R) injury, LV contractility; conditions: for recovery of LV contractile performance during reperfusion: pre-ischemic 20-minute peptide infusion, 20 min ischemia, 40 min reperfusion
Procedure: Male, 3-month-old, body weight 25±5 g C57BL/6 mice were used for this study and obtained from Charles River. Animals were randomly assigned to experimental groups and Left ventricular (LV) function was measured and myocardial ischemia-reperfusion injury (I/R) was induced as previously described^23. Briefly, 15 minutes after the injection of heparin at a dose of 200U/10 g body weight, the mouse was anesthetized by inhalation of isoflurane vapor and subjected to cervical dislocation upon the cessation of respiration. Thoracotomy was immediately performed and the heart excised. The heart was arrested in ice-cold Krebs-Henseleit (KH) buffer (in mM: 25 NaHCO3, 0.5 EDTA, 5.3 KCl, 1.2 MgSO4, 0.5 pyruvate, 118 NaCl, 10 glucose, 2.5 CaCl2). The aorta was isolated and cannulated in a Langendorff perfusion system. The heart was then perfused at a constant pressure of 75 mmHg with KH buffer, which was continually bubbled with 5% CO2/95% O2 at 37° C. Effluent from the Thebesian veins was drained by a thin polyethylene tube (PE-10) pierced through the apex of the LV. A water-filled balloon made of polyvinylchloride film was inserted in the LV and connected to a blood pressure transducer (Harvard Apparatus, 733866, MA). After a 30-minute stabilization period, a balloon volume (BV) generating an LV end-diastolic-pressure (EDP) of 0 mmHg, was determined for the heart. The BV was then increased stepwise up through 1, 2, 5, 8, 10, 12, 15, 18, 20, 25, 30 μl increments of 1-5 μl and contractile performance were recorded for 10 seconds at each step. The indexes of cardiac function were amplified by a Transducer Amplifier Module (Harvard Apparatus, 730065, MA). Data was recorded and analyzed using PowerLab 4/35 (ADInstruments, PL3504, CO) and LabChart V7 (ADInstruments, CO). The BV was then adjusted to set EDP at about 8-10 mmHg and held constant during the ensuing steps of the protocol. Baseline function (determined by EDP at about 8-10 mmHg) was recorded for 5 minutes. The perfused beating heart were then treated with freshly prepared peptide stocks (0.2 mM), which were infused using syringe pump (Kent Sci, CT) into the perfusion buffer in a mixing chamber above the heart at 5% of coronary flow rate, to deliver final concentrations of 10-50 μM or equivalent vehicle for 20 minutes. At the end of the peptide infusion period hearts were subjected to global, no-flow normothermic ischemia by turning off the perfusion flow for 20 min, followed by a reperfusion phase for 40 min. BV was retaken through the stepwise sequence of 1-5 μl increments between 1 and 30 μl, with contractile performance again being recorded for 10 seconds at each step. Cardiac LV function was recorded throughout the procedure. In the case of post-ischemic treatment with alpha CT11 peptide, peptide infusion was begun at the initiation of the reperfusion phase, continued for 20 minutes and then contractile function by BV increments was taken as per the other hearts. A set of hearts were freeze-clamped immediately after peptide infusion for Western blotting. The protocol is illustrated in FIG. 9.

[1] = system: Cx43 S368 phosphorylation; experiment: Western blot of Cx43-pS368 in peptide-infused LV; design: species or system mouse; conditions: peptide infused 20 minutes; relative to vehicle control
Procedure: Protein samples from all related experiments (PKC and EDC cross-linking assays and Westerns on heart lysates) were processed in lithium dodecyl sulfate sample loading buffer (Bio-Rad, 1610737 CA), heated at 95° C. for 5 minutes. Samples from PKC and cross-linking assays were loaded on 18% Tris-Glycine Stain-Free gels (Bio-Rad, 5678073 CA); samples from heart lysates were loaded on 10% Tris-Glycine Stain-Free el (Bio-Rad: 5678033 CA), resolved by SDS-PAGE, transferred to PVDF FL membrane on a Turbo Transfer System (Bio-Rad, 1704155 CA). alpha CT1 eluted from cross-linking reactions was detected on blots against biotin with HRP-NeutrAvidin (ThermoFisher, 31001, MA). Signals were detected by HR-based chemiluminescence (ThermoFisher, 34095, MA) and exposed to ECL Chemidoc (Bio-Rad, 1708280 CA) and digitized using Image Lab software (Bio-Rad, 1709692 CA). Detailed methods have also been previously described^11, 13, 14 Surface Plasmon Resonance
Male, 3-month-old, body weight 25±5 g C57BL/6 mice were used for this study and obtained from Charles River. Animals were randomly assigned to experimental groups and Left ventricular (LV) function was measured and myocardial ischemia-reperfusion injury (I/R) was induced as previously described^23. Briefly, 15 minutes after the injection of heparin at a dose of 200U/10 g body weight, the mouse was anesthetized by inhalation of isoflurane vapor and subjected to cervical dislocation upon the cessation of respiration. Thoracotomy was immediately performed and the heart excised. The heart was arrested in ice-cold Krebs-Henseleit (KH) buffer (in mM: 25 NaHCO3, 0.5 EDTA, 5.3 KCl, 1.2 MgSO4, 0.5 pyruvate, 118 NaCl, 10 glucose, 2.5 CaCl2). The aorta was isolated and cannulated in a Langendorff perfusion system. The heart was then perfused at a constant pressure of 75 mmHg with KH buffer, which was continually bubbled with 5% CO2/95% O2 at 37° C. Effluent from the Thebesian veins was drained by a thin polyethylene tube (PE-10) pierced through the apex of the LV. […] After a 30-minute stabilization period, a balloon volume (BV) generating an LV end-diastolic-pressure (EDP) of 0 mmHg, was determined for the heart. The BV was then increased stepwise up through 1, 2, 5, 8, 10, 12, 15, 18, 20, 25, 30 μl increments of 1-5 μl and contractile performance were recorded for 10 seconds at each step. […] Data was recorded and analyzed using PowerLab 4/35 (ADInstruments, PL3504, CO) and LabChart V7 (ADInstruments, CO). […] Baseline function (determined by EDP at about 8-10 mmHg) was recorded for 5 minutes. […] BV was retaken through the stepwise sequence of 1-5 μl increments between 1 and 30 μl, with contractile performance again being recorded for 10 seconds at each step. Cardiac LV function was recorded throughout the procedure. […]

Row | Sequence | recovery of LV contractile performance during reperfusion (adult mouse hearts) | Cx43 pS368 in LV samples [1] | recovery of LV function (adult mouse hearts; 20-minute peptide infusion at initiation of reperfusion (post-ischemic)) | cardiac muscle loss (adult mouse hearts; ex vivo I/R injury)
1 | RQPKIWFPNRRKPWKKRPRPDDLAI [M3 DDLAI] | no ability to improve recovery | no propensity to upregulate S368 phosphorylation |  | 
2 | RQPKIWFPNRRKPWKKRPRPDDLE [alpha CT1-I] | significant functional recovery after I/R injury | significant increases in phosphorylation |  | 
3 | RQPKIWFPNRRKPWKK RPRPAALAI (RQPKIWFPNRRKPWKKRPRPAALAI) [M1 AALAI] | no ability to improve recovery | no propensity to upregulate S368 phosphorylation |  | 
4 | RQPKIWFPNRRKPWKKRPRPDDLEI [alpha CT1] | notable recovery of LV function during reperfusion; also recorded: significant functional recovery after I/R injury | significant increases in phosphorylation | did not result in significant recovery of LV function | reduce cardiac muscle loss by more than half
